The values below come from patent US20240108601A1, “TREATMENT OF MENTAL DISORDERS” (GH Research Ireland Limited, priority 2022, published 2024).

Like-named read-outs stand apart in the source and are kept apart here.

One data set deals with human plasma protein. Put plainly: Plasma binding of 5-MIAA. It is filed as in vitro ADME. Here is the method:
(§1) Binding to human plasma protein was determined. Reported are the unbound fraction (fu) for three replicates as well as the mean unbound fraction, the standard deviation and the mean % recovery (Table 8).

The nature of data set [1]: LC-MS/MS of 5-MeO-DMT, bufotenine and 5-MIAA in urine, serum and breastmilk of lactating PPD patient; infant exposure estimates. The following applies: for Breastmilk concentration / Serum concentration / Urine concentration: second patient. The source says:
When determining the potential impact of maternal drug administration on a breastfed infant, it is standard practice to calculate the Relative Infant Dose (RID) (Bennett, P. N., and L. J. Notarianni. “Risk from drugs in breast milk: an analysis by relative dose.” Br J Clin Pharmacol 42.5 (1996): P673-4). The RID is the dosage (in μg/kg/day) the infant is exposed to by the intake of breast milk, divided by the dosage (in μg/kg/day) the mother receives.
Using estimates for daily intake of breast milk and the number of feeds as well as the measured breast milk concentrations the exposure of the infant can be determined.
For example, a published estimate for daily intake of breast milk as a function of infant weight is 150 ml/kg/day. To model the exposure, it is assumed that an infant of 5 kg is fed three times over 24 hours, receiving 250 ml breast milk each time.
The second patient was lactating, and, per the clinical trial protocol, breastmilk samples were collected pre-dosing and at multiple timepoints after administration of the last dose. […] Similar analyses were carried out on patient serum and urine samples.

Data set [2] has as its system human hepatocytes (Hμrel HumanPool co-culture). Put plainly: Metabolic stability in Hμrel human hepatocyte co-culture.
The next data set deals with human hepatocytes. Put plainly: Metabolite identification in human hepatocyte suspension. To be noted: 5-MeO-DMT free base 10 μM, incubated up to 120 minutes. On the procedure: For incubations with cryopreserved hepatocytes, the 2 mM stock solution was diluted with Leibovitz L-15 medium to a concentration of 20 μM or 2 μM. An aliquot (250 μL) of the 20 μM and 2 μM test substance formulations was added to each hepatocyte incubation sample (250 μL), as appropriate, so that the final test substance concentration in the incubations was 10 μM or 1 μM, respectively, and incubations contained less than 1% (v/v) solvent.
Incubations were performed at ca. 37° C. in a shaking water bath (total incubation volume 0.5 mL). For 1 μM, incubations were terminated after 0, 5, 10, 20, 30, 60 and 120 minutes, by the addition of ice-cold acetonitrile (0.5 mL).
The samples were vortex mixed and centrifuged at ca 13,000 rpm for 10 minutes at room temperature. Following centrifugation, the protein-free supernatants were removed for analysis.
Blank control incubations were carried out with Leibovitz L-15 medium in place of the test substance. No cells control samples were performed with Leibovitz L-15 medium in place of hepatocytes. Aliquots of the blank control samples were taken at 120 minutes, while no cells control samples were taken at 0, 30 and 120 for 1 μM incubations and at 0 and 120 minutes for 10 μM incubations.
All 1 μM incubations were performed in duplicate, while all 10 μM incubations were performed in singlet. All samples were stored at −80° C. (nominal) prior to analysis.
Prior to sample analysis a 100 μL aliquot of each sample was evaporated to near dryness under a steady stream of nitrogen at room temperature, and subsequently reconstituted in 50 μL of mobile phase A (0.1% formic acid in water). Each sample (0, 30 and 120-minute, 10 μM) was analysed using accurate mass LC-MS to determine relative levels of parent compound at each time-point, and determine the profile of metabolites formed. Appropriate blank and control samples were also analysed. The 10 and 60-minute, 10 μM incubation samples were not analysed and were stored at −80° C. (nominal). […]

The nature of data set [3]: Pharmacokinetics of 5-MeO-DMT and bufotenine after single inhaled dose. The class given is in vivo, human. The following applies: from 15 min onwards after 5-MeO-DMT inhalation; LLOQ. On the procedure: Blood samples were obtained at 1; 2; 4; 7; 10; 15; 20; 30; 45 min and 1; 1.5; 2; 3; 4 hours after administration.
PK parameters were generated by algebraic analysis of the concentration versus time plots for each individual. The analysis was carried out using the software Phoenix WinNonlin 6.3.

The nature of another data set: Plasma binding of 5-MIAA. It is filed as in vitro ADME. To be noted: for fraction unbound: human, plasma. On the procedure:
as §1

Where [4] appears, read: 5 kg infant, three feeds of 250 ml.

On to 5-Methoxyindole acetic acid [5-MIAA], for which, in the data set on human plasma protein, the “Mean % Recovery” value is reported as 81.4%; the “Plasma binding (mean fraction unbound)” value is recorded as approximately 50%; the “Unbound fraction (fu), Replicate 1” value is recorded as 0.499; the “Unbound fraction (fu), Replicate 2” value is 0.462. Besides, in the data set with human plasma protein, the “Unbound fraction (fu), Replicate 3” value is recorded as 0.544. Further, in the data set on human plasma protein (three replicates), the Mean fu came to 0.502. Further, in data set [1] (setting [4]), the “DID of 5-MIAA per kg” value is recorded as 0.001377 mg/kg/day and the “DID, total exposure of the infant to 5-MIAA” value is 0.006886 mg/day. Besides, in data set [1] (1.0 hrs after last dose), the Breastmilk concentration is 13945.2 pg/mL and the Serum concentration was 263.092 ng/mL. Besides, in data set [1] (2.5 hrs after last dose), the Breastmilk concentration was 13240.9 pg/mL and the Serum concentration is 101.9947 ng/mL. For the same compound, in data set [1] (8.5 hrs after last dose), the Breastmilk concentration is 359.4 pg/mL and the Urine concentration is 291651 pg/mL. In data set [1] (24.0 hrs after last dose), the Breastmilk concentration is 35.5 pg/mL, the Serum concentration is 0.2706 ng/mL and the Urine concentration is 18649 pg/mL. For the same compound, in data set [1] (120.0 hrs after last dose), the Breastmilk concentration entry was “BLQ (Below limit of quantification. The lower limit of quantification is 25 pg/ml for both 5-MeO-DMT and 5-MIAA in both serum and breastmilk; it is 25 pg/ml in urine for 5-MeO-DMT and 250 pg/ml for 5-MIAA in urine.)”; the Serum concentration was 0.0671 ng/mL; the Urine concentration is 9444 pg/mL. In data set [1] (−24.0 hrs (pre-dosing)), the Breastmilk concentration result was “BLQ (Below limit of quantification. The lower limit of quantification is 25 pg/ml for both 5-MeO-DMT and 5-MIAA in both serum and breastmilk; it is 25 pg/ml in urine for 5-MeO-DMT and 250 pg/ml for 5-MIAA in urine.)”; the Serum concentration is 0.051 ng/mL; the Urine concentration is 8113 pg/mL. For the same compound, the “Disappearance with stromal cell controls” value in data set [2] (0-72 h) was “no disappearance”. Besides, the “Remaining abundance after 72h” value in data set [2] (hepatocytes, 1 and 10 μM) was 75-82%. In addition, the “In vitro intrinsic clearance” value in data set [2] (human hepatocytes, 1 μM) stood at 0.15 μl/min/million cells.

As for `COc1ccc2[nH]cc(CC[N+](C)(C)[O-])c2c1` [5-MeO-DMT-N-oxide], the “Relative Proportion of compounds identified” value in the data set with human hepatocytes is given as 1%.

With `CN(C)CCc1c[nH]c2ccc(O)cc12` [Bufotenine], the Breastmilk concentration entry in data set [1] (1.0 hrs after last dose) is “BLQ (Below limit of quantification. The lower limit of quantification is 25 pg/ml for both 5-MeO-DMT and 5-MIAA in both serum and breastmilk; it is 25 pg/ml in urine for 5-MeO-DMT and 250 pg/ml for 5-MIAA in urine.)”; in data set [1] (2.5 hrs after last dose), “BLQ (Below limit of quantification. The lower limit of quantification is 25 pg/ml for both 5-MeO-DMT and 5-MIAA in both serum and breastmilk; it is 25 pg/ml in urine for 5-MeO-DMT and 250 pg/ml for 5-MIAA in urine.)”; in data set [1] (8.5 hrs after last dose), “BLQ (Below limit of quantification. The lower limit of quantification is 25 pg/ml for both 5-MeO-DMT and 5-MIAA in both serum and breastmilk; it is 25 pg/ml in urine for 5-MeO-DMT and 250 pg/ml for 5-MIAA in urine.)”; in data set [1] (24.0 hrs after last dose), “BLQ (Below limit of quantification. The lower limit of quantification is 25 pg/ml for both 5-MeO-DMT and 5-MIAA in both serum and breastmilk; it is 25 pg/ml in urine for 5-MeO-DMT and 250 pg/ml for 5-MIAA in urine.)”; in data set [1] (120.0 hrs after last dose), “BLQ (Below limit of quantification. The lower limit of quantification is 25 pg/ml for both 5-MeO-DMT and 5-MIAA in both serum and breastmilk; it is 25 pg/ml in urine for 5-MeO-DMT and 250 pg/ml for 5-MIAA in urine.)”; in data set [1] (−24.0 hrs (pre-dosing)), “BLQ (Below limit of quantification. The lower limit of quantification is 25 pg/ml for both 5-MeO-DMT and 5-MIAA in both serum and breastmilk; it is 25 pg/ml in urine for 5-MeO-DMT and 250 pg/ml for 5-MIAA in urine.)”. The Serum concentration result was “BLQ (Below limit of quantification. The lower limit of quantification is 25 pg/ml for both 5-MeO-DMT and 5-MIAA in both serum and breastmilk; it is 25 pg/ml in urine for 5-MeO-DMT and 250 pg/ml for 5-MIAA in urine.)” in data set [1] (1.0 hrs after last dose); “BLQ (Below limit of quantification. The lower limit of quantification is 25 pg/ml for both 5-MeO-DMT and 5-MIAA in both serum and breastmilk; it is 25 pg/ml in urine for 5-MeO-DMT and 250 pg/ml for 5-MIAA in urine.)” in data set [1] (2.5 hrs after last dose); “BLQ (Below limit of quantification. The lower limit of quantification is 25 pg/ml for both 5-MeO-DMT and 5-MIAA in both serum and breastmilk; it is 25 pg/ml in urine for 5-MeO-DMT and 250 pg/ml for 5-MIAA in urine.)” in data set [1] (24.0 hrs after last dose); “BLQ (Below limit of quantification. The lower limit of quantification is 25 pg/ml for both 5-MeO-DMT and 5-MIAA in both serum and breastmilk; it is 25 pg/ml in urine for 5-MeO-DMT and 250 pg/ml for 5-MIAA in urine.)” in data set [1] (120.0 hrs after last dose); “BLQ (Below limit of quantification. The lower limit of quantification is 25 pg/ml for both 5-MeO-DMT and 5-MIAA in both serum and breastmilk; it is 25 pg/ml in urine for 5-MeO-DMT and 250 pg/ml for 5-MIAA in urine.)” in data set [1] (−24.0 hrs (pre-dosing)). The Urine concentration result was “BLQ (Below limit of quantification. The lower limit of quantification is 25 pg/ml for both 5-MeO-DMT and 5-MIAA in both serum and breastmilk; it is 25 pg/ml in urine for 5-MeO-DMT and 250 pg/ml for 5-MIAA in urine.)” in data set [1] (8.5 hrs after last dose); “BLQ (Below limit of quantification. The lower limit of quantification is 25 pg/ml for both 5-MeO-DMT and 5-MIAA in both serum and breastmilk; it is 25 pg/ml in urine for 5-MeO-DMT and 250 pg/ml for 5-MIAA in urine.)” in data set [1] (24.0 hrs after last dose); “BLQ (Below limit of quantification. The lower limit of quantification is 25 pg/ml for both 5-MeO-DMT and 5-MIAA in both serum and breastmilk; it is 25 pg/ml in urine for 5-MeO-DMT and 250 pg/ml for 5-MIAA in urine.)” in data set [1] (120.0 hrs after last dose); “BLQ (Below limit of quantification. The lower limit of quantification is 25 pg/ml for both 5-MeO-DMT and 5-MIAA in both serum and breastmilk; it is 25 pg/ml in urine for 5-MeO-DMT and 250 pg/ml for 5-MIAA in urine.)” in data set [1] (−24.0 hrs (pre-dosing)). The “Relative Proportion of compounds identified” value with human hepatocytes worked out at 5%. Further, the “Blood concentration of metabolite bufotenine” value in data set [3] was less than 0.025 ng/mL.

`CC(=O)CC(c1ccccc1)c1c(O)c2ccccc2oc1=O` (stereo not shown) [Warfarin, reference compound] yielded a recovery in the data set “Plasma binding of 5-MIAA” (human plasma) of 78.1%. Also, the fraction unbound in the data set “Plasma binding of 5-MIAA” (read-out: Unbound fraction (fu), Replicate 1) stood at 0.0418; in “Plasma binding of 5-MIAA” (read-out: Unbound fraction (fu), Replicate 2), 0.0356; in “Plasma binding of 5-MIAA” (read-out: Unbound fraction (fu), Replicate 3) it was 0.0358; in “Plasma binding of 5-MIAA” (three replicates, read-out: Mean fu), 0.0377.
